Data on one compound can be found in patent US9556153B1, “JAK1 inhibitors” (Eli Lilly and Company, priority 2015, dated 2017).

This test deals with phosphorylation of STAT3 in the H1975 xenograft. The test can be described thus: pSTAT3 Mouse IVTI (JAK1) Assay, H1975 xenograft. The format is in vivo. As to conditions: single oral dose, two hours, n=1. The protocol:
pSTAT3 Mouse IVTI (JAK1) Assay
The purpose of this assay is to measure the ability of test compounds to inhibit the phosphorylation of STAT3 (STAT3 activation) in the H1975 xenograft mouse model. Grow H1975 cells according to ATCC specifications at the lowest possible passage number available. Culture and maintain cells in RPMI-1640 supplemented with 10% FBS and incubated at 37° C. in 5% CO2. Harvest cells by standard techniques and mix with BD Biosciences basement membrane matrix (MATRIGEL®) to cell suspension to achieve a 1:1 cell/matrix ratio yielding an inoculation volume of 0.2 mL cell/matrix suspension containing 5e6 cells. […] Time course studies are a single dose administered at the TED70 determined from the dose response study.
Harvest and cut tumors to yield approximately 150-250 mm^3 size fragments and immediately drop into a 12×75 mm tube containing 1 mL of ice cold MSD Tris Lysis buffer (Meso Scale Discovery cat# R60TX-2) and 1×HALT (Thermo Scientific product #1861281). […] Cool plate to RT and measure absorbance at or near 562 nm on Molecular Devices Spectra Max. Protein concentrations for each sample are determined using SoftMax Pro 6.3 software program. After tumor samples are quantitated, freeze lysates at −80° C. in the 96 well polypropylene plate and assay at a later date. […]

Turning to `Cc1cc(Nc2cc(O[C@H]3CC[C@@H](NC[C@@H](O)C(F)(F)F)CC3)cc3c2ncn3C)nn1C` [Example 1, (2R)-3-{[cis-4-({4-[(1,5-Dimethyl-1H-pyrazol-3-yl)amino]-1-methyl-1H-benzimidazol-6-yl}oxy)cyclohexyl]amino}-1,1,1-trifluoropropan-2-ol], the “TEC50 (plasma concentration to achieve 50% pSTAT3 inhibition)” value amounted to 11.1 μM and the “TED50 (dose necessary to achieve 50% pSTAT3 inhibition)” value is on record as 35 mg/kg.
